Source: PubChem BioAssay (NCI)
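1) Cells in 96-well plates. 2) Compound, 48 h, 5 concentrations. 3) Linear interpolation between surrounding doses. 4) Unreached endpoint = highest concentration. TGI denotes the concentration required for complete inhibition of growth.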

Assays:
Test in all cases: growth of human tumour cells (NCI), 48 h
[1] = test system: 786-0 renal
[2] = test system: A498 renal
[3] = test system: A549 NSCLC
[4] = test system: ACHN renal
[5] = test system: CAKI-1 renal
[6] = test system: COLO 205 colon
[7] = test system: DLD-1 colon
[8] = test system: DMS 114 small cell lung
[9] = test system: DMS 273 small cell lung
[10] = test system: EKVX NSCLC
[11] = test system: HCC-2998 colon
[12] = test system: HCT-116 colon
[13] = test system: HCT-15 colon
[14] = test system: HL-60(TB) leukemia
[15] = test system: HOP-18 NSCLC
[16] = test system: HOP-62 NSCLC
[17] = test system: HOP-92 NSCLC
[18] = test system: HT29 colon
[19] = test system: IGROV1 ovarian
[20] = test system: K-562 leukemia
[21] = test system: KM12 colon
[22] = test system: KM20L2 colon
[23] = test system: LOX IMVI melanoma
[24] = test system: LXFL 529 NSCLC
[25] = test system: M14 melanoma
[26] = test system: M19-MEL melanoma
[27] = test system: MALME-3M melanoma
[28] = test system: MOLT-4 leukemia
[29] = test system: NCI-H226 lung
[30] = test system: NCI-H23 lung
[31] = test system: NCI-H460 lung
[32] = test system: NCI-H522 lung
[33] = test system: OVCAR-3 ovarian
[34] = test system: OVCAR-4 ovarian
[35] = test system: OVCAR-5 ovarian
[36] = test system: OVCAR-8 ovarian
[37] = test system: RPMI-8226 leukemia
[38] = test system: RXF 393 renal
[39] = test system: RXF-631 renal
[40] = test system: SF-268 CNS
[41] = test system: SF-295 CNS
[42] = test system: SF-539 CNS
[43] = test system: SK-MEL-28 melanoma
[44] = test system: SK-MEL-5 melanoma
[45] = test system: SK-OV-3 ovarian
[46] = test system: SN12C renal
[47] = test system: SNB-19 CNS
[48] = test system: SNB-75 CNS
[49] = test system: SNB-78 CNS
[50] = test system: SR leukemia
[51] = test system: SW-620 colon
[52] = test system: TK-10 renal
[53] = test system: U251 CNS
[54] = test system: UACC-257 melanoma
[55] = test system: UACC-62 melanoma
[56] = test system: UO-31 renal
[57] = test system: XF 498 CNS
[58] = test system: CCRF-CEM leukemia

Measured: TGI

Cc1ccc(S(=O)OC23CC4CC(CC(C4)C2)C3)cc1 (stereo unspecified)
85.7 µM: [19]
44.3 µM: [14]
not listed: [58]
> 100 µM: all other assays above

NC(=O)N/N=C(/c1nc2ccc([N+](=O)[O-])cc2[nH]c1=O)C(O)c1ccco1 (stereo unspecified)
61 µM: [13]
33.5 µM: [46]
85.3 µM: [11]
94.6 µM: [16]
30.9 µM: [42]
66.4 µM: [22]
not listed: [2] | [10] | [15] | [21]
> 100 µM: all other assays above
